Laboratory results taken from US11116757B2 (priority 2015, dated 2021).

molecular target: DCN1-UBC12 interaction (Homo sapiens (Human), UniProt Q96GG9); assay: biochemical; format: binding; details: TR-FRET IC50
Sequence (Q96GG9 60-248 limits assumed): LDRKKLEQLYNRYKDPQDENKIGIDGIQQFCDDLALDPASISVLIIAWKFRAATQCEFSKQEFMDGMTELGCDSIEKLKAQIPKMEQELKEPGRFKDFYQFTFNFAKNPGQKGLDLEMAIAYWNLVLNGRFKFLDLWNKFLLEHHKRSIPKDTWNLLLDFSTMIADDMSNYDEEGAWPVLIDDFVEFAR

Structure (SMILES) | IC50
CCCC(C)N1CCC(N(Cc2ccccc2)C(=O)Nc2ccc(C(F)(F)F)nc2C)CC1 (stereo not drawn) [A178] | 15.8 µM
COc1ccccc1CN1CCC(N(Cc2ccccc2)C(=O)Nc2cc(F)cc(C(F)(F)F)c2)CC1 [A224] | > 25.3 µM

same assay, conditions: read-out: TR-FRET IC50

Structure (SMILES) | IC50
CCCC(C)N1CCC(N(Cc2ccccc2)C(=O)Nc2cccc([N+](=O)[O-])c2C)CC1 (stereo not drawn) [A161] | 7.94 µM
CCCC(C)N1CCC(N(Cc2ccccc2)C(=O)Nc2cccc(F)c2F)CC1 (stereo not drawn) [A162] | 8.22 µM
CCCC(C)N1CCC(N(Cc2ccccc2)C(=O)Nc2ccc(C(=O)OC)cc2)CC1 (stereo not drawn) [A163] | 8.42 µM
CCCC(C)N1CCC(N(Cc2ccccc2)C(=O)Nc2ccc(-c3ccc(OC)cc3)cc2)CC1 (stereo not drawn) [A164] | 8.9 µM
CCCC(C)N1CCC(N(Cc2ccccc2)C(=O)Nc2ccc(Br)cc2C)CC1 (stereo not drawn) [A165] | 9.43 µM
CCCC(C)N1CCC(N(Cc2ccccc2)C(=O)Nc2cc(F)c(F)cc2F)CC1 (stereo not drawn) [A166] | 10.1 µM
CCCN1CCC(N(CCC)C(=O)Nc2cccc(C(F)(F)F)c2)CC1 [A167, 1-Propyl-1-(1-Propylpiperidin-4-yl)-3-(3-(Trifluoromethyl)Phenyl)Urea] | 10.5 µM
CCCC(C)N1CCC(N(Cc2ccccc2)C(=O)Nc2cccc(F)c2Cl)CC1 (stereo not drawn) [A168] | 10.6 µM
CCCC(C)N1CCC(N(Cc2ccccc2)C(=O)Nc2cc(F)ccc2Cl)CC1 (stereo not drawn) [A169] | 11 µM
O=C(Nc1cccc(C(F)(F)F)c1)NC1CCN(Cc2ccc(F)cc2)CC1 [A172, 1-(1-(4-Fluorobenzyl)Piperidin-4-yl)-3-(3-(Trifluoromethyl)Phenyl)Urea] | 12.9 µM
CCCC(C)N1CCC(N(Cc2ccccc2)C(=O)Nc2c(C(C)C)cccc2C(C)C)CC1 (stereo not drawn) [A173] | 13.1 µM
CCCC(C)N1CCC(N(Cc2ccccc2)C(=O)Nc2ccc(C(F)(F)F)cc2[NH2+][O-])CC1 (stereo not drawn) [A174] | 13.2 µM
CCCC(C)N1CCC(N(Cc2ccccc2)C(=O)Nc2ccc(C)cc2Cl)CC1 (stereo not drawn) [A175] | 13.6 µM
CCCC(C)N1CCC(N(Cc2ccccc2)C(=O)Nc2ccc(CC#N)cc2)CC1 (stereo not drawn) [A176] | 13.7 µM
CCCC(C)N1CCC(N(Cc2ccccc2)C(=O)Nc2cccc(O)c2)CC1 (stereo not drawn) [A177] | 14.5 µM
CCCC(C)N1CCC(N(Cc2ccccc2)C(=O)Nc2cc(C)ccc2F)CC1 (stereo not drawn) [A181] | 19.8 µM
CCCCN1CCC(N(Cc2ccccc2)C(=O)Nc2ccc(C)s2)CC1 [A182] | 21.1 µM
O=C(Nc1cccc(C(F)(F)F)c1)NC1CCN(Cc2cccc(F)c2)CC1 [A183, 1-(1-(3-Fluorobenzyl)Piperidin-4-yl)-3-(3-(Trifluoromethyl)Phenyl)Urea] | 21.9 µM
O=C(Nc1cccc(C(F)(F)F)c1)N[C@H]1CCN(Cc2ccccc2)C[C@@H]1O [A185] | 30 µM
O=C(Nc1cccc(C(F)(F)F)c1)NC1CCN(Cc2ccc(Cl)cc2)CC1 [A186, 1-(1-(4-Chlorobenzyl)Piperidin-4-yl)-3-(3-(Trifluoromethyl)Phenyl)Urea] | 33.4 µM
C=CC(=O)NCCN(C(=O)Nc1cccc(C(F)(F)F)c1)C1CCN(C(C)CCC)CC1 (stereo not drawn) [A187] | 33.8 µM
CCCCN1C(C)(C)CC(N(Cc2ccccc2)C(=O)Nc2cccc(C(F)(F)F)c2)CC1(C)C [A188] | 34.3 µM
CCCC(C)N1CCC(N(Cc2ccccc2)C(=O)Nc2ccc(C(=O)OC)cc2Cl)CC1 (stereo not drawn) [A189] | 37.8 µM
CCCC(C)N1CCC(N(Cc2ccccc2)C(=O)Nc2ccc(C(=O)OC)cc2I)CC1 (stereo not drawn) [A190] | 37.8 µM
CCCC(C)N1CCC(N(Cc2ccccc2)C(=O)Nc2ccccc2OC(F)(F)F)CC1 (stereo not drawn) [A191] | 44.9 µM
CCCC1CCC(N(Cc2ccccc2)C(=O)c2cccc(C(F)(F)F)c2)CC1 (stereo not drawn) [A193] | < 0.0029 µM
COc1ccc(C(=O)N2CCC(NCc3ccc(C)cc3)CC2)cc1 [A194] | > 10.3 µM

Structure (SMILES) | IC50
C#CCCCN1CCC(N(Cc2ccccc2NC(=O)/C=C/C)C(=O)Nc2cccc(C(F)(F)F)c2)CC1 [A195] | > 100 µM
CCCC(C)N1CCC(N(Cc2ccccc2)C(=O)Nc2ccc(OC)cc2OC)CC1 (stereo not drawn) [A196] | > 11.8 µM
CCCC(C)N1CCC(N(Cc2ccccc2)C(=O)Nc2ccc(OC)cc2OC)CC1 (stereo not drawn) [A197] | > 111 µM
C#CCCCN1CCC(N(Cc2ccccc2NC(=O)CC)C(=O)Nc2cccc(C(F)(F)F)c2)CC1 [A198] | > 12.9 µM
C#CCCCN1CCC(N(Cc2ccccc2NC(=O)CC)C(=O)Nc2ccc(Cl)c(Cl)c2)CC1 [A199] | > 14.5 µM
C#CCCCN1CCC(N(Cc2ccccc2NC(=O)CC)C(=O)Nc2ccc(Cl)c(Cl)c2)CC1 [A200] | > 15 µM
O=C(Nc1cc(F)cc(C(F)(F)F)c1)N(Cc1ccccc1)C1CCN(Cc2ccc(N3CCCC3)cc2)CC1 [A201] | > 19.1 µM
O=C(Nc1cc(F)cc(C(F)(F)F)c1)N(Cc1ccccc1)C1CCN(Cc2cccc(N3CCCC3)c2)CC1 [A202] | > 19.4 µM
Cn1c(CN2CCC(N(Cc3ccccc3)C(=O)Nc3cc(F)cc(C(F)(F)F)c3)CC2)nc2ccccc21 [A203] | > 20.2 µM
CN(C)c1ccc(CN2CCC(N(Cc3ccccc3)C(=O)Nc3cc(F)cc(C(F)(F)F)c3)CC2)c2ccccc12 [A204] | > 20.2 µM
Cn1ccc2cc(CN3CCC(N(Cc4ccccc4)C(=O)Nc4cc(F)cc(C(F)(F)F)c4)CC3)ccc21 [A205] | > 20.8 µM
O=C(Nc1cc(F)cc(C(F)(F)F)c1)N(Cc1ccccc1)C1CCN(Cc2cc(F)c(F)c(F)c2)CC1 [A206] | > 20.9 µM
CCCC(C)N1CCC(N(Cc2ccccc2)C(=O)Nc2ccc3ncccc3c2)CC1 (stereo not drawn) [A207] | > 21 µM
O=C(Nc1cc(F)cc(C(F)(F)F)c1)N(Cc1ccccc1)C1CCN(Cc2cncn2Cc2ccccc2)CC1 [A208] | > 21.1 µM
CN(C)c1ccc(CN2CCC(N(Cc3ccccc3)C(=O)Nc3cc(F)cc(C(F)(F)F)c3)CC2)cc1 [A209] | > 21.5 µM
O=C(Nc1cc(F)cc(C(F)(F)F)c1)N(Cc1ccccc1)C1CCN(Cc2cncnc2)CC1 [A210] | > 21.7 µM
O=C(Nc1cc(F)cc(C(F)(F)F)c1)N(Cc1ccccc1)C1CCN(Cc2ccc(Cc3ccccc3)cc2)CC1 [A211] | > 21.8 µM
O=C(Nc1cc(F)cc(C(F)(F)F)c1)N(Cc1ccccc1)C1CCN(Cc2csc3ccccc23)CC1 [A212] | > 22.5 µM
O=C(Nc1cc(F)cc(C(F)(F)F)c1)N(Cc1ccccc1)C1CCN(Cc2cc[nH]n2)CC1 [A213] | > 22.5 µM
O=C(Nc1cc(F)cc(C(F)(F)F)c1)N(Cc1ccccc1)C1CCN(Cc2ccccc2OCc2ccccc2)CC1 [A214] | > 22.9 µM
O=C(Nc1cc(F)cc(C(F)(F)F)c1)N(Cc1ccccc1)C1CCN(Cc2ccc[nH]2)CC1 [A215] | > 23.4 µM
CC(c1ccc(Cl)cc1)N1CCC(N(Cc2ccccc2)C(=O)Nc2cc(F)cc(C(F)(F)F)c2)CC1 (stereo not drawn) [A216] | > 23.8 µM
O=C(Nc1cc(F)cc(C(F)(F)F)c1)N(Cc1ccccc1)C1CCN(Cc2cccc(Oc3ccccc3)c2)CC1 [A217] | > 23.9 µM
CC(c1cccc(O)c1)N1CCC(N(Cc2ccccc2)C(=O)Nc2cc(F)cc(C(F)(F)F)c2)CC1 (stereo not drawn) [A218] | > 24 µM
Cc1ccc(CN2CCC(N(Cc3ccccc3)C(=O)Nc3cc(F)cc(C(F)(F)F)c3)CC2)o1 [A219] | > 24.2 µM
C=CS(=O)(=O)NCCCN(C(=O)Nc1cccc(C(F)(F)F)c1)C1CCN(C(C)CCC)CC1 (stereo not drawn) [A220] | > 24.5 µM
Cn1cncc1CN1CCC(N(Cc2ccccc2)C(=O)Nc2cc(F)cc(C(F)(F)F)c2)CC1 [A221] | > 24.8 µM

Structure (SMILES) | IC50
O=C(Nc1cc(F)cc(C(F)(F)F)c1)N(Cc1ccccc1)C1CCN(Cc2nc3ccccc3s2)CC1 [A222] | > 25.2 µM
CC(N1CCC(N(Cc2ccccc2)C(=O)Nc2cccc(C(F)(F)F)c2)CC1)C(F)(F)F (stereo not drawn) [A223] | > 25.3 µM
O=C(Nc1cc(F)cc(C(F)(F)F)c1)N(Cc1ccccc1)C1CCN(Cc2ncc[nH]2)CC1 [A225] | > 26.1 µM
O=C(Nc1cc(F)cc(C(F)(F)F)c1)N(Cc1ccccc1)C1CCN(Cc2cnccn2)CC1 [A226] | > 26.6 µM
Cc1ccc(CN2CCC(N(Cc3ccccc3)C(=O)Nc3cc(F)cc(C(F)(F)F)c3)CC2)s1 [A227] | > 27 µM
O=C(Nc1cc(F)cc(C(F)(F)F)c1)N(Cc1ccccc1)C1CCN(Cc2ccncc2)CC1 [A228] | > 28.3 µM
Cn1ccnc1CN1CCC(N(Cc2ccccc2)C(=O)Nc2cc(F)cc(C(F)(F)F)c2)CC1 [A229] | > 28.6 µM
N#Cc1cccc(CN2CCC(N(Cc3ccccc3)C(=O)Nc3cc(F)cc(C(F)(F)F)c3)CC2)c1 [A230] | > 28.7 µM
COc1cccc(CN2CCC(N(Cc3ccccc3)C(=O)Nc3cc(F)cc(C(F)(F)F)c3)CC2)c1 [A231] | > 28.9 µM
CCCC1CCC(N(Cc2ccccc2)C(=O)Nc2cccc(C(F)(F)F)c2)CC1 (stereo not drawn) [A232] | > 38.7 µM
CCCC(C)N1CCC(N(Cc2ccccc2)C(=O)NCc2ccc(N)cc2)CC1 (stereo not drawn) [A233] | > 39.4 µM
O=C(c1cccc(C(F)(F)F)c1)N(Cc1ccccc1)C1CC2CCC(C1)N2Cc1ccccc1 (stereo not drawn) [A234] | > 40.6 µM
C=CS(=O)(=O)NCCN(C(=O)Nc1cccc(C(F)(F)F)c1)C1CCN(C(C)CCC)CC1 (stereo not drawn) [A235] | > 41.1 µM
CCCC(C)N1CCC(N(Cc2ccccc2)C(=O)Nc2ccc(CN(C)C)cc2)CC1 (stereo not drawn) [A236] | > 45.4 µM
CCCC(C)N1CCC(N(Cc2ccccc2)C(=O)Nc2ccc([N+](=O)[O-])c(C(F)(F)F)c2)CC1 (stereo not drawn) [A237] | > 48.4 µM
O=C(Nc1cccc(C(F)(F)F)c1)NC1CCN(Cc2ccccc2F)CC1 [A238, 1-(1-(2-Fluorobenzyl)Piperidin-4-yl)-3-(3-(Trifluoromethyl)Phenyl)Urea] | > 49.4 µM
C=CC(=O)NCc1ccccc1CN(C(=O)Nc1cccc(C(F)(F)F)c1)C1CCN(C(C)CCC)CC1 (stereo not drawn) [A239] | > 51.2 µM
CCCC(C)N1CCC(N(Cc2ccccc2)C(=O)Nc2ccc(C)nc2Br)CC1 (stereo not drawn) [A240] | > 51.7 µM
CCCC(C)N1CCC(N(Cc2ccccc2)C(=O)Nc2cnc(Cl)nc2)CC1 (stereo not drawn) [A241] | > 52.4 µM
CCCCN1CCC(N(Cc2ccccc2)C(=O)Nc2cccc(C#N)c2)CC1 [A242] | > 52.5 µM
CCCC(C)N1CCC(N(Cc2ccccc2)C(=O)Nc2ccccc2N2CCOCC2)CC1 (stereo not drawn) [A243] | > 52.8 µM
CCCC(C)N1CCC(N(Cc2ccccc2)C(=O)Nc2cccc3cnccc23)CC1 (stereo not drawn) [A244] | > 53.6 µM
CCCC(C)N1CCC(N(CCCNC(=O)CCl)C(=O)Nc2cccc(C(F)(F)F)c2)CC1 (stereo not drawn) [A245] | > 53.9 µM
CCCC(C)N1CCC(N(Cc2ccccc2)C(=O)Nc2cc(OC)c(OC)c(OC)c2)CC1 (stereo not drawn) [A246] | > 55.6 µM
CCCC(C)N1CCC(N(Cc2ccccc2)C(=O)Nc2ccc(CN3CCCC3)cc2)CC1 (stereo not drawn) [A247] | > 58.5 µM
